Here are results for two compounds from BindingDB's records for doi:10.1124/jpet.105.099705 (Meiji Seika Kaisha, 2006).

Counter-ions that a name gives are not always drawn.

The target in test [1] is T1, Neuropeptide Y receptor type 5 (Homo sapiens, UniProt Q15761).
T1 sequence (Q15761 whole entry): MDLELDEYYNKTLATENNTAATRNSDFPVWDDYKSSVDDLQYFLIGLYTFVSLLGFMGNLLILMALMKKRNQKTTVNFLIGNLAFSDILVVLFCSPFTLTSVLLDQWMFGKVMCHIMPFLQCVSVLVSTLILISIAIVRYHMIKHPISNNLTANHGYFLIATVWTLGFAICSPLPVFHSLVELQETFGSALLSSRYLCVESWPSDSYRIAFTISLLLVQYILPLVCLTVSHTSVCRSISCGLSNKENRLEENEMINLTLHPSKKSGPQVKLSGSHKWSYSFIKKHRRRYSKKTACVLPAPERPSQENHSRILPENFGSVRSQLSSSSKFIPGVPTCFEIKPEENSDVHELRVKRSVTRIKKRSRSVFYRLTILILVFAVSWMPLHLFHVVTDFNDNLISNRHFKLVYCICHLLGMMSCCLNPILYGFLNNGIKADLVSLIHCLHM

Test [2] concerns the target T2, Neuropeptide Y receptor type 2 (Homo sapiens, UniProt P49146).
T2 sequence (P49146 whole entry): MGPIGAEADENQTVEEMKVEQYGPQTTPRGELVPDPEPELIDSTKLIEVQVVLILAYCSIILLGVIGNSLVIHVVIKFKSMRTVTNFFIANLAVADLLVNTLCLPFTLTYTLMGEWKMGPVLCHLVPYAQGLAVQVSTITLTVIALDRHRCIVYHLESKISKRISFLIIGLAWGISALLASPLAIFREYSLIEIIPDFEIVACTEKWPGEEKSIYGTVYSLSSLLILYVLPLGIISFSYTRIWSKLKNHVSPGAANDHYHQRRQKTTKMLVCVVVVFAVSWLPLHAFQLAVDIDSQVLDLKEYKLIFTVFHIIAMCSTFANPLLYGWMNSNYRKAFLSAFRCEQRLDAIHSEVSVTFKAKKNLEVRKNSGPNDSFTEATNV

Test [3] concerns the target T3, Neuropeptide Y receptor type 1 (Homo sapiens, UniProt P25929).
T3 sequence (P25929 whole entry): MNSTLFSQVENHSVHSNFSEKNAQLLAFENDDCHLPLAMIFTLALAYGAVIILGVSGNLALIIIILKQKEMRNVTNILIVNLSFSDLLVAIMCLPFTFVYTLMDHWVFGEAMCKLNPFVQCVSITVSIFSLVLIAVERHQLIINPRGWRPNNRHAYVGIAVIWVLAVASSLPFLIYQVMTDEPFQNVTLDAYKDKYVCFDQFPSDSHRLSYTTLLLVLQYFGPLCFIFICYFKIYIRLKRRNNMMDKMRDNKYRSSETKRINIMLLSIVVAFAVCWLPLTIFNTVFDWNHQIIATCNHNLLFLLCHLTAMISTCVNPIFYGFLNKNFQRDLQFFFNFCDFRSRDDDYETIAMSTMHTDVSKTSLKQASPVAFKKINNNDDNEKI

As a reminder, the IC50 is the concentration that inhibits the measured activity by half. Regarding `CC(C)n1c2c(c3cc(NC(=O)N(C)CCc4ccncc4)ccc31)CCCC2` [3-(5,6,7,8-tetrahydro-9-isopropyl-carbazol-3-yl)-1-methyl-1-(2-pyridin-4-yl-ethyl)-ureanbsphydrochloride], the IC50 in test [1] is 4.3 nM; in test [2] it was above 10 µM.
For the compound `CC1(C)CC(=O)C(C2C3=C(CC(C)(C)CC3=O)Oc3ccccc32)C(=O)C1` (stereo not given) [CAS_6508-43-6], the IC50 in test [1] is 25 nM; in test [3] it was above 10 µM; in test [2], above 10 µM.
